Assay results as given in the supplement of paper PMC11061612.

What was measured:
Test in all cases: combination Emax (second highest fraction inhibited in the dose matrix, 72 h); higher = more inhibition; extreme values may be limits of the assay
[1] = test system: NCI-H2085 (Non-Small Cell Lung Carcinoma)
In short: (§1)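 Cell lines grown in DMEM/F12 or RPMI with 10% FBS were plated in 1536-well plates and held 24 hours at 37°C, 5% CO2 before 72 hours of exposure to two-drug dose matrices, with DMSO typically at 0.2%. CellTiter-Glo 2.0 luminescence gave viability, which was converted to inhibition. Vehicle wells were set to 0 and blank wells to 1. Combination Emax is the second-highest inhibition in the matrix, and Bliss excess is the observed combination effect minus the expected EA + EB − EA·EB, where EA and EB are the single-agent effects.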

[2] = test system: HT-1376 (Bladder Carcinoma)
In short: as §1

[3] = test system: UM-UC-3 (Bladder Carcinoma)
In short: as §1

[4] = test system: Calu-3 (Lung Adenocarcinoma)
In short: as §1

[5] = test system: ME-1 (Acute Myeloid Leukemia)
In short: as §1

[6] = test system: NCI-H82 (Small Cell Lung Carcinoma)
In short: as §1

[7] = test system: HO-1-N-1 (Oral Cavity Carcinoma)
In short: as §1

[8] = test system: TE-15 (Esophageal Squamous Cell Carcinoma)
In short: as §1

[9] = test system: CCRF-CEM (T-Lymphoblastic Leukemia)
In short: as §1

T98G (Glioblastoma) = test system: T98G (Glioblastoma)
In short: as §1

[10] = test system: LB831-BLC (Bladder Carcinoma)
In short: as §1

[11] = test system: KURAMOCHI (Ovarian Carcinoma)
In short: as §1

[12] = test system: CAL-148 (Breast Carcinoma)
In short: as §1

[13] = test system: Hs-578-T (Breast Carcinoma)
In short: as §1

[14] = test system: TE-9 (Esophageal Squamous Cell Carcinoma)
In short: as §1

[15] = test system: RO82-W-1 (Thyroid Gland Carcinoma)
In short: as §1

KELLY (Neuroblastoma) = test system: KELLY (Neuroblastoma)
In short: as §1

[16] = test system: CaR-1 (Colorectal Carcinoma)
In short: as §1

HOS (Osteosarcoma) = test system: HOS (Osteosarcoma)
In short: as §1

[17] = test system: Ramos-2G6-4C10 (Burkitt's Lymphoma)
In short: as §1

SMILES | combination Emax [1] | combination Emax [2] | combination Emax [3] | combination Emax [4] | combination Emax [5] | combination Emax [6] | combination Emax [7] | combination Emax [8] | combination Emax [9] | combination Emax (T98G (Glioblastoma)) | combination Emax [10] | combination Emax [11] | combination Emax [12] | combination Emax [13] | combination Emax [14] | combination Emax [15] | combination Emax (KELLY (Neuroblastoma)) | combination Emax [16] | combination Emax (HOS (Osteosarcoma)) | combination Emax [17]
C=CCn1c(=O)c2cnc(Nc3ccc(N4CCN(C)CC4)cc3)nc2n1-c1cccc(C(C)(C)O)n1 [AZD1775] + CCc1c2c(nc3ccc(O)cc13)-c1cc3c(c(=O)n1C2)COC(=O)[C@]3(O)CC [SN-38] (first compound max 1 µM, partner max 0.3 µM) | 0.523 | 0.342 | 0.954 | 0.786 | 0.597 | 0.965 | 0.978 | 0.939 | 1 | 0.95 | 0.875 | 0.944 | 0.974 | 0.855 | 0.496 | 0.263 | 1 | 0.808 | 0.849 | 1
C=CCn1c(=O)c2cnc(Nc3ccc(N4CCN(C)CC4)cc3)nc2n1-c1cccc(C(C)(C)O)n1 [AZD1775] + Nc1ccn([C@@H]2O[C@H](CO)[C@@H](O)C2(F)F)c(=O)n1 [Gemcitabine] (first compound max 1 µM, partner max 0.3 µM) | 0.725 | 0.428 | 0.918 | 0.636 | 0.526 | 0.923 | 0.993 | 0.944 | 1 | 0.781 | 0.872 | 0.699 | 0.989 | 0.724 | 0.502 | 0.194 | 1 | 0.729 | 0.596 | 1
CN(CCO)CC[C@H](CSc1ccccc1)Nc1ccc(S(=O)(=O)NC(=O)c2ccc(N3CCC([C@@H](O)c4ccccc4-c4ccc(Cl)cc4)CC3)cc2)cc1S(=O)(=O)C(F)(F)F [AZD4320] + CC(=O)O[C@H]1C(=O)[C@@]2(C)[C@H]([C@H](OC(=O)c3ccccc3)[C@]3(O)C[C@H](OC(=O)[C@H](O)[C@@H](NC(=O)c4ccccc4)c4ccccc4)C(C)=C1C3(C)C)[C@]1(OC(C)=O)CO[C@@H]1C[C@@H]2O [Paclitaxel] (first compound max 1 µM, 7x7, partner max 3 µM) | 0.97 | 0.775 | 0.966 | 0.76 | 1 | 0.941 | 1 | 0.992 | 1 | 0.993 | 0.965 | 0.707 | 1 | 1 | 0.931 | 0.947 | 1 | 0.911 | 1 | 0.872
CN(CCO)CC[C@H](CSc1ccccc1)Nc1ccc(S(=O)(=O)NC(=O)c2ccc(N3CCC([C@@H](O)c4ccccc4-c4ccc(Cl)cc4)CC3)cc2)cc1S(=O)(=O)C(F)(F)F [AZD4320] + CS(=O)(=O)CCNCc1ccc(-c2ccc3ncnc(Nc4ccc(OCc5cccc(F)c5)c(Cl)c4)c3c2)o1 [Lapatinib] (first compound max 1 µM, 7x7, partner max 10 µM) | 0.807 | 0.508 | 0.392 | 0.989 | 1 | 0.69 | 0.97 | 0.761 | 1 | 0.741 | 0.858 | 0.939 | 0.94 | 0.99 | 0.931 | 0.646 | 0.994 | 0.785 | 0.348 | 0.961
CN(CCO)CC[C@H](CSc1ccccc1)Nc1ccc(S(=O)(=O)NC(=O)c2ccc(N3CCC([C@@H](O)c4ccccc4-c4ccc(Cl)cc4)CC3)cc2)cc1S(=O)(=O)C(F)(F)F [AZD4320] + Nc1ccn([C@@H]2O[C@H](CO)[C@@H](O)C2(F)F)c(=O)n1 [Gemcitabine] (first compound max 1 µM, 7x7, partner max 0.3 µM) | 0.562 | 0.236 | 0.979 | 0.624 | 1 | 0.807 | 1 | 0.994 | 1 | 0.861 | 0.881 | 0.559 | 0.974 | 0.876 | 0.518 | 0.572 | 0.999 | 0.708 | 0.829 | 0.554
C[C@@H]1COCCN1c1cc(C2([S@](C)(=N)=O)CC2)nc(-c2ccnc3[nH]ccc23)n1 [AZD6738] + Nc1ccn([C@@H]2O[C@H](CO)[C@@H](O)C2(F)F)c(=O)n1 [Gemcitabine] (first compound max 10 µM, 7x7, partner max 0.3 µM) | 0.587 | 0.491 | 0.966 | 0.694 | 0.774 | 0.987 | 1 | 0.939 | 1 | 0.858 | 0.9 | 0.667 | 1 | 0.772 | 0.538 | 0.223 | 1 | 0.752 | 0.87 | 
